What was measured:
[1] = tested on: Pu27 chair quadruplex (CMYC NHE III1); test: Taq polymerase stop assay at 60° C. with Pu27 insert template; assay type: biochemical
Method: The same wild-type and mutant sequences of the Pu27 were used in a Taq polymerase stop assay, which was described in Han et al., Nucl. Acids Res. 27: 537-542 (1999). This assay is a modification of that used by Weitzmann et al., J. Biol. Chem. 271, 20958-20964 (1996), and is also described below. A reaction mixture of template DNA (77-mer with a Pu27 or mutant Pu27 insert) (50 nM), Tris.HCl (50 mM), MgCl2 (10 mM), DTT (0.5 mM), EDTA (0.1 mM), BSA (60 ng), and 5′-end-labeled 18-mer primer (˜18 nM) was heated to 90° C. for 5 min and allowed to cool to ambient temperature over 30 min. Taq Polymerase (1 μl) was added to the reaction mixture, and the reaction was maintained at a constant temperature (45° C. for the mutant Pu27 comparison; 60° C. for the porphyrin comparison) for 30 min. (For the porphyrin comparison, following cooling to ambient temperature, the requisite amount of porphyrin solution was added to the reaction mixture and left at ambient temperature for 30 min prior to the addition of polymerase.) Following the addition of 10 μl stop buffer (formamide [20 ml], 1 M NaOH [200 μl], 0.5 M EDTA [400 μl], 10 mg bromophenol blue), the DNA fragments were separated with a sequencing gel (12%) and visualized on a phosphorimager. Adenine sequencing (indicated by “A” at the top of the gel) was performed using double-stranded DNA Cycle Sequencing System from Life Technologies. The general sequence for 77-mer template strands was TCCAACTATGTATAC-INSERT-[…], and the 1 8-mer primer had the sequence TAATACGACTCACTATAG.
To further determine whether this selectivity of TMPyP4 versus TMPyP2 for the chair conformation correlated with an effect on CMYC transcription, a Taq polymerase stop assay was performed at an elevated temperature (60° C.) to partially destabilize the arresting quadruplex structure in the presence of increasing concentrations of TMPyP2 and TMPyP4. […] This is in agreement with the differential effects of the two compounds on CMYC expression in vitro and sensitivity in vivo to tumors that overexpress CMYC (MX-1 and PC-3).

CMYC [2] = test: CMYC expression in Ramos Burkitt's lymphoma cell line (NHE III1 retained); assay type: cell-based
Method: (§1) The importance of the NHE III1 sequence in mediating the CMYC transcriptional inhibition by TMPyP4 was assessed. Two Burkitt's lymphoma cell lines with different translocation break points within the CMYC and immunoglobulin loci were analyzed, which are referred to as the Ramos cell line and the CA46 cell line. While the Ramos cell line retained the NHE III1 during the translocation, the CA46 cell line lost this element, together with the P1 and P2 promoters (FIG. 5A). When the NHE III1 element was deleted, as in the CA46 cell line, TMPyP4 had no effect on CMYC transcriptional activation.

G-quadruplex structures = conditions: cited from earlier work
CMYC [3] = conditions: cited from earlier work
Pu27 chair G-quadruplex = test: Porphyrin photocleavage of Pu27 chair quadruplex; assay type: binding; conditions: exposure to light
Excerpt: The two quadruplex conformations of Pu27 were contacted with compounds known to bind quadruplex structures. Specifically, the two conformations were contacted with TMPyP4 and TMPyP2 (FIG. 4A) to further confirm the biologically relevant quadruplex conformation (FIGS. 4B or 4C). It has been shown that both TMPyP4 and TMPyP2 catalyze the oxidation of DNA upon exposure to light, which results in DNA strand breakage in proximity to the binding sites (Han et al., J. Am. Chem. Soc. 123: 8902-8913 (2001)).
An identical cleavage pattern was produced by both compounds for the basket quadruplex (FIG. 4B). DNA damage was centered on the constituent guanines of the six-base bridging loop, inferring that both porphyrins are able to bind to this region, but in a nonspecific way that is neither intercalating nor end-stacking (FIG. 4A).

CMYC [4] = test: CMYC transcription in CA46 Burkitt's lymphoma cell line (NHE III1 deleted); assay type: cell-based; conditions: NHE III1 element deleted
Method: as §1

RET = RET RNA expression in MiaPaCa cells (RT-PCR); assay type: cell-based, human; conditions: for downregulation of RET RNA expression: IC70 concentration
Method: The effects of two test molecules also were assessed for the RET quadruplex. MiaPaCa-2 (human pancreatic tumor) were obtained from ATCC and were cultured at 37° C./5% CO2 in RPMI medium (Cellgro) with 10% fetal bovine serum (FBS), 50 U/ml penicillin G sodium, and 50 U/ml streptomycin sulfate (Gibco/BRL). Cells were treated with TMPyP4 and telomestatin (for the latter molecule, see, e.g., Shin-ya et al., J. Am. Chem. Soc. 123:1262 (2001)) when they reached ˜50% confluency. MiaPaCa cells were first washed with 5 ml of sterile phosphate-buffered saline (PBS, Fisher Scientific). The PBS was aspirated from the cells by vacuum, and replaced with 5 ml of Opti-MEM medium (Gibco-BRL) containing 6 μl Lipofectin (Invitrogen). Compounds then were added to the medium. Cells were allowed to grow at 37° C./5% CO2 for 6 hours to allow for transfection, and the medium was replaced with normal growth medium. […] The trypsin was neutralized with an equal volume of culture medium, the cells were then pelleted from this mixture by centrifugation at 500×gravity, the supernatant was aspirated, and the pellet was washed in PBS, recentrifuged, and frozen at −80° C.
RET RNA then was extracted from the cells. Cell pellets were thawed and resuspended in 400 μl of a buffer from a commercially available kit (i.e., Buffer RA1 from the NucleoSpin RNA II Kit (Clontech)). Total cellular RNA extraction was performed according to the manufacturer's protocol. Reverse transcription was performed to convert mRNA (i.e., polyadenylated RNA) to cDNA, and RET-specific primers were used in PCR to amplify RET message.

CMYC [5] = test: CMYC expression in MiaPaCa cells; assay type: cell-based, human; conditions: 100 μM
CMYC quadruplex = test: Stabilization of CMYC quadruplex structure (polymerase arrest / chemical footprinting); assay type: biochemical
Excerpt: (§2) Nucleic acids in a chair conformation often have similar but not identical structures when compared to one another and differences can manifest in loop size and nucleotide sequence, quadruplex geometry, quadruplex stability, the number of alternative chair structures for a given nucleotide sequence, and chemical reactivity, and binding of other molecules. Polymerase arrest assays and chemical footprinting studies applied to the CMYC chair quadruplex structure as described hereafter also were applied to nucleotide sequences upstream of the PDGFA and RET genes. It was determined that the NHE regions 5′ of the RET and PDGFA genes formed chair quadruplex structures that regulated transcription. FIG. 6A depicts a generalized quadruplex chair structure formed in the CMYC, PDGFA, and RET regulatory regions. In this chair structure, CMYC and RET have two stable tetrads and PDGFA has three stable tetrads. The N1 loop for CMYC is TG, for RET is GCG, and for PDGFA is CG. The N2 loop for CMYC is GAG, for RET is GCG, and for PDGFA is GCG. The N3 loop for CMYC is TG, for RET is GCG, and for PDGFA is CG (form A) or AG (form B). The different forms of the PDGFA quadruplex are depicted in FIG. 6C and the RET quadruplex structure is depicted in FIG. 6B. […]

RET quadruplex [6] = test: Stabilization of RET quadruplex structure (polymerase arrest / chemical footprinting); assay type: biochemical
Excerpt: as §2

PDGFA quadruplex = test: Stabilization of PDGFA quadruplex structure (polymerase arrest / chemical footprinting); assay type: biochemical
Excerpt: as §2

RET quadruplex [7] = test: Photo-induced cleavage of the RET quadruplex; assay type: binding

Compound | stabilization of the quadruplex arrest site ([1]; up to 20 μM compound, 60° C.) | effect on CMYC expression (CMYC [2]) | binding to G-quadruplex structures (G-quadruplex structures) | effect on CMYC transcription and protein expression (CMYC [3]) | polymerase arrest at quadruplex arrest site ([1]; 0.5 μM compound, 60° C.) | polymerase arrest at quadruplex arrest site ([1]; 5 μM compound, 60° C.) | conformation of Pu27 stabilized ([1]; chair versus basket) | photocleavage pattern of chair G-quadruplex (Pu27 chair G-quadruplex) | effect on CMYC transcriptional activation (CMYC [4]) | downregulation of RET (RET; 100 μM) | downregulation of CMYC (CMYC [5]) | stabilization of CMYC quadruplex structure (CMYC quadruplex) | stabilization of RET quadruplex structure (RET quadruplex [6]) | stabilization of PDGFA quadruplex structure (PDGFA quadruplex) | binding site on RET quadruplex from photo-induced cleavage (RET quadruplex [7]) | downregulation of RET RNA expression (RET; after 48 hours) | downregulation of RET RNA expression (RET; after 72 hours)
C[n+]1ccccc1-c1c2nc(c(-c3cccc[n+]3C)c3ccc([nH]3)c(-c3cccc[n+]3C)c3ccc([nH]3)c(-c3cccc[n+]3C)c3nc1C=C3)C=C2 [TMPyP2] | only modestly stabilized | not | bound with less affinity | not | – | – | – | – | – | – | – | – | – | – | – | – | –
C[n+]1ccc(-c2c3nc(c(-c4cc[n+](C)cc4)c4ccc([nH]4)c(-c4cc[n+](C)cc4)c4ccc([nH]4)c(-c4cc[n+](C)cc4)c4nc2C=C4)C=C3)cc1 [TMPyP4] | – | lowered CMYC expression | able to bind | lowered | ~65% | virtually total arrest | stabilizes the chair conformation over the basket conformation | specific cleavage pattern | no effect | did not significantly downregulate | about 50% | stabilized | not the RET quadruplex | stabilized | binds above and below the two stable tetrads | – | –
Cc1oc2nc1-c1nc(co1)-c1nc(co1)-c1nc(co1)-c1nc(co1)-c1nc(co1)C1=NC(CS1)c1nc-2c(C)o1 (centres unmarked) [telomestatin] | – | – | – | – | – | – | – | – | – | – | – | – | – | – | – | at least 50% | at least 50%
